{"source": "paper PMC4232510", "about": "“Identification of Functionally Important Residues of the Rat P2X4 Receptor by Alanine Scanning Mutagenesis of the Dorsal Fin and Left Flipper Domains” (PLoS ONE, 2014)", "assay_in_all_cases": "whole-cell patch clamp, HEK293T cells expressing mutant", "format_in_all_cases": "cell-based", "conditions_in_all_cases": "for relative responsiveness: 100 µM agonist 2 s, relative to ATP (100%)", "key": {"[1]": {"target": "T1, rP2X4R H286A mutant (Rattus norvegicus, UniProt P51577, H286A)", "T1 construct": "expressed in transfected cells; host or cells: HEK293T", "T1 sequence (P51577 1-388 H286A)": "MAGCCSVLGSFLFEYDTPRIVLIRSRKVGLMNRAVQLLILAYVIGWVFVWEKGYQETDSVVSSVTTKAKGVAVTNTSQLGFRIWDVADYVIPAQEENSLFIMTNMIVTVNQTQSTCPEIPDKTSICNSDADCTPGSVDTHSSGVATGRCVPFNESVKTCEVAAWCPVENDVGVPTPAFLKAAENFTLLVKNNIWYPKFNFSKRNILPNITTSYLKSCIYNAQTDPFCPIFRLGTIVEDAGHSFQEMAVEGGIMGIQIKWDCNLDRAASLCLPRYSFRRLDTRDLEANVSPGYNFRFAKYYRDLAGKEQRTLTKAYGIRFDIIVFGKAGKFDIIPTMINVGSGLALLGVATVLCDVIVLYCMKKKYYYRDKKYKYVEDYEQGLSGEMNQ", "method": "(§1) To express the recombinant channels, we used human embryonic kidney (HEK) 293T cells (American Type Culture Collection, Rockville, MD, USA) grown in Dulbecco modified Eagle’s medium (Thermo Fisher Scientific, Waltham, MA) supplemented with 10% fetal bovine serum (Sigma-Aldrich, St Louis, MO), 50 U/ml penicillin and 50 µg/ml streptomycin (both Thermo Fisher Scientific, Waltham, MA) in a humidified 5% CO2 and 95% air at 37°C. Cells were cultured in 75 cm^2 plastic culture flasks (NUNC, Rochester, NY) for 36–72 hours until reaching 80–95% confluence. Before the day of transfection, the cells were plated on 35 mm culture dishes (Sarstedt, Newton, NC) and incubated at 37°C for at least 24 h. Transfection was done using 2 µg of either WT or mutant receptor DNA with 2 µl of JetPrime reagent in 2 ml of Dulbecco modified Eagle’s medium, according to manufacturer’s instructions (PolyPlus-transfection, Illkirch, France). Transfected cells were identified by the fluorescence signal of EGFP using the Olympus IX71 inverted research microscope with fluorescence illuminators (Model IX71; Olympus, Melville, NY).\n(§2) cDNAs encoding the sequences of the rP2X4 and mutated subunits were subcloned into the pIRES2-EGFP vector (Clontech, Mountain View, CA, USA). To generate the mutants, oligonucleotides (synthesized and provided by VBC-Genomics, Vienna, Austria or Sigma Aldrich) containing specific mutagenesis mismatches were introduced into the rP2X4/pIRES2-EGFP template using PfU Ultra DNA polymerase (Thermo Fisher Scientific). A High-Speed Plasmid Mini Kit (Geneaid, Taipei City, Taiwan) was used to isolate the plasmids for transfection. Dye terminator cycle sequencing (ABI PRISM 3100, Applied Biosystems, Foster City, CA) was used to identify and verify the presence of the mutations. The sequencing was performed by the DNA Sequencing Laboratory, Institute of Microbiology, ASCR, Prague.\n(§3) ATP-induced currents were recorded from whole cells clamped to −60 mV using an Axopatch 200B patch-clamp amplifier (Axon Instruments, Union City, CA). The recordings were captured and stored using the Digidata 1322A and pClamp9 software package (Axon Instruments). During the experiments, the cell culture was perfused with a bath solution containing: 142 mM NaCl, 3 mM KCl, 2 mM CaCl2, 1 mM MgCl2, 10 mM 4-(2-Hydroxyethyl)piperazine-1-ethanesulfonic acid (HEPES) and 10 mM D-glucose, adjusted to pH 7.3 with 1 M NaOH. The patch electrodes were filled with a solution containing: 154 mM CsCl, 11 mM EGTA and 10 mM HEPES, adjusted to pH 7.2 with 1.6 M CsOH. The whole-cell configuration was used to abolish the influence of natively present metabotropic receptors for ATP and we used intracellular cesium to block any kind of possible background potassium conductance. Potency of ATP was measured based on the activation of naïve (not previously stimulated) receptors using a short (2–5 s) application of various concentrations of ATP. The results are expressed as molar concentration of ATP required to produce 50% of the maximal response (EC50). One or two responses were recorded from one cell, if not otherwise stated, and responses from different cells were pooled. The maximum current amplitude (Imax) was measured in response to application of supramaximal concentrations (100–1000 µM) of ATP. Responsiveness to P2XR agonists 2-MeS-ATP, ATPγS, BzATP, and α,β-meATP, all applied in 100 µM concentration, was expressed as percentage of response in comparison to 100 µM ATP treatment for selected mutants. In all mutants, the whole cell currents were also measured in the presence of 3 µM IVM, which was dissolved in dimethyl sulfoxide, stored in stock solutions at 10 mM, and diluted to required concentrations in bath solution in the day of experiment. The control and drug containing solutions were applied via a rapid (exchange time 30–40 ms) perfusion system (RSC-200, BIOLOGIC, Claix, France). All other chemicals are from Sigma-Aldrich. […]"}, "[2]": {"target": "T2, rP2X4R I205A mutant (Rattus norvegicus, UniProt P51577, I205A)", "T2 construct": "expressed in transfected cells; host or cells: HEK293T", "T2 sequence (P51577 1-388 I205A)": "T1 sequence (P51577 1-388 H286A) with I205A, A286H", "method": "as §1, §2, §3"}, "[3]": {"target": "T3, rP2X4R T211A mutant (Rattus norvegicus, UniProt P51577, T211A)", "T3 construct": "expressed in transfected cells; host or cells: HEK293T", "T3 sequence (P51577 1-388 T211A)": "T1 sequence (P51577 1-388 H286A) with T211A, A286H", "method": "as §1, §2, §3"}, "[4]": {"conditions": "100 µM ATP 60 s, biexponential fit"}, "[5]": {"conditions": "contribution of τdes2, 100 µM ATP 60 s"}, "[6]": {"conditions": "decay after removal of 1 or 3 µM ATP, 3 µM IVM"}, "[7]": {"conditions": "naïve receptors, 2–5 s application"}, "[8]": {"conditions": "3 µM IVM 4-6 min vs IVM-untreated"}}, "note": "Residue numbers refer to the chain shown, from its start."}
{"compound": "2′(3′-O-(4-Benzoylbenzoyl)adenosine 5′-triphosphate [BzATP]", "values": [{"measurement": "relative responsiveness", "setting": "[1]", "value": "25.6±4.0", "unit": "%"}, {"measurement": "relative responsiveness", "setting": "[2]", "value": "4.4±2.6", "unit": "%"}, {"measurement": "relative responsiveness", "setting": "[3]", "value": "23.4±4.7", "unit": "%"}]}
{"compound": "CSc1nc(N)c2ncn([C@@H]3O[C@H](COP(=O)(O)OP(=O)(O)OP(=O)(O)O)[C@@H](O)[C@H]3O)c2n1", "note": "[2-MeS-ATP, 2-(Methylthio)adenosine 5′-triphosphate]", "values": [{"measurement": "relative responsiveness", "setting": "[1]", "value": "67.9±1.2", "unit": "%"}, {"measurement": "relative responsiveness", "setting": "[2]", "value": "35.6±1.9", "unit": "%"}, {"measurement": "relative responsiveness", "setting": "[3]", "value": "79.3±6.7", "unit": "%"}]}
{"compound": "Nc1ncnc2c1ncn2[C@@H]1O[C@H](COP(=O)(O)OP(=O)(O)OP(=O)(O)O)[C@@H](O)[C@H]1O", "note": "[ATP]", "values": [{"measurement": "τdes1", "setting": "[1]; [4]", "value": "4.0 ± 0.8", "unit": "s"}, {"measurement": "τdes2", "setting": "[1]; [4]", "value": "16.2 ± 1.6", "unit": "s"}, {"measurement": "Imax+IVM", "setting": "[1]; ATP after 3 µM IVM 4-6 min", "value": "4.2 ± 0.7", "unit": "nA"}, {"measurement": "A2 /(A1+A2)", "setting": "[1]; [5]", "value": "55 ± 5", "unit": "%"}, {"measurement": "τoff +IVM", "setting": "[1]; [6]", "value": "12 ± 2.1", "unit": "s"}, {"measurement": "EC50", "setting": "[1]; [7]", "value": "20 ± 2.9", "unit": "µM"}, {"measurement": "τdes", "setting": "[1]; weighted, 100 µM ATP 60 s", "value": "11 ± 1.4", "unit": "s"}, {"measurement": "EC50 rightward shift compared to WT", "setting": "[2]", "value": "approximately 10 fold"}, {"measurement": "τdes1", "setting": "[2]; [4]", "value": "1.5 ± 0.7", "unit": "s"}, {"measurement": "τdes2", "setting": "[2]; [4]", "value": "8.1 ± 1.3", "unit": "s"}, {"measurement": "Imax", "setting": "[2]; 100–1000 µM ATP", "value": "0.6 ± 0.13", "unit": "nA"}, {"measurement": "Imax+IVM", "setting": "[2]; ATP after 3 µM IVM 4-6 min", "value": "4.3 ± 0.4", "unit": "nA"}, {"measurement": "A2 /(A1+A2)", "setting": "[2]; [5]", "value": "51 ± 4", "unit": "%"}, {"measurement": "τoff +IVM", "setting": "[2]; [6]", "value": "4.1 ± 0.9", "unit": "s"}, {"measurement": "EC50", "setting": "[2]; [7]", "value": "26 ± 7.7", "unit": "µM"}, {"measurement": "τdes", "setting": "[2]; weighted, 100 µM ATP 60 s", "value": "4.9 ± 0.9. s"}, {"measurement": "τdes1", "setting": "[3]; [4]", "value": "0.9 ± 0.4", "unit": "s"}, {"measurement": "τdes2", "setting": "[3]; [4]", "value": "8.3 ± 2.4", "unit": "s"}, {"measurement": "Imax", "setting": "[3]; 100–1000 µM ATP", "value": "2.3 ± 0.3", "unit": "nA"}, {"measurement": "Imax+IVM", "setting": "[3]; ATP after 3 µM IVM 4-6 min", "value": "3.9 ± 0.7", "unit": "nA"}, {"measurement": "A2 /(A1+A2)", "setting": "[3]; [5]", "value": "60 ± 8", "unit": "%"}, {"measurement": "τoff +IVM", "setting": "[3]; [6]", "value": "28 ± 2.5", "unit": "s"}, {"measurement": "EC50", "setting": "[3]; [7]", "value": "2.6 ± 0.6", "unit": "µM"}, {"measurement": "τdes", "setting": "[3]; weighted, 100 µM ATP 60 s", "value": "5.0 ± 1.1", "unit": "s"}]}
{"compound": "Nc1ncnc2c1ncn2[C@@H]1O[C@H](CO[P@](=O)(O)O[P@](=O)(O)O[P@@](=O)(O)S)[C@@H](O)[C@H]1O", "note": "[ATPγS, Adenosine 5′-(γ-thio)triphosphate]", "values": [{"measurement": "relative responsiveness", "setting": "[1]", "value": "39.8±6.2", "unit": "%"}, {"measurement": "relative responsiveness", "setting": "[2]", "value": "11.3±2.2", "unit": "%"}, {"measurement": "relative responsiveness", "setting": "[3]", "value": "61.8±6.1", "unit": "%"}]}
{"compound": "CC[C@H](C)[C@H]1O[C@]2(CC[C@@H]1C)C[C@@H]1C[C@@H](C/C=C(\\C)[C@@H](O[C@H]3C[C@H](OC)[C@@H](O[C@H]4C[C@H](OC)[C@@H](O)[C@H](C)O4)[C@H](C)O3)[C@@H](C)/C=C/C=C3\\CO[C@@H]4[C@H](O)C(C)=C[C@@H](C(=O)O1)[C@]34O)O2", "note": "[IVM, ivermectin]", "values": [{"measurement": "Fold incr. Imax", "setting": "[1]; [8]", "value": "1.9 ± 0.3", "unit": "fold"}, {"measurement": "Fold incr. Imax", "setting": "[2]; [8]", "value": "5.5 ± 0.6", "unit": "fold"}, {"measurement": "Fold incr. Imax", "setting": "[3]; [8]", "value": "1.6 ± 0.3", "unit": "fold"}]}
{"compound": "Nc1ncnc2c1ncn2C1OC(COP(=O)(O)CP(=O)(O)OP(=O)(O)O)C(O)C1O", "note": "(stereo not drawn) [α,β-meATP, α,β-methyleneadenosine 5′-triphosphate]", "values": [{"measurement": "relative responsiveness", "setting": "[1]", "value": "30.0±6.8", "unit": "%"}, {"measurement": "relative responsiveness", "setting": "[2]", "value": "4.6±1.0", "unit": "%"}, {"measurement": "relative responsiveness", "setting": "[3]", "value": "39.1±7.2", "unit": "%"}]}
